As usually defined, the Ki is a measure of affinity in units of concentration, obtained from inhibition or displacement. A higher Ki goes with a looser hold on the target.

The structures appear in SMILES notation.

Sigma intracellular receptor 2, sequence (Q5BJF2 whole entry): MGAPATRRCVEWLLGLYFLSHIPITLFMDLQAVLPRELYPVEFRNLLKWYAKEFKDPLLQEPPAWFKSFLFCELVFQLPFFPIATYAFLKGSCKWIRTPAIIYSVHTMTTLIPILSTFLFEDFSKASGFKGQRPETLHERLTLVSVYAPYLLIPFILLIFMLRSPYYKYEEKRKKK
Sigma non-opioid intracellular receptor 1, sequence (Q99720 whole entry): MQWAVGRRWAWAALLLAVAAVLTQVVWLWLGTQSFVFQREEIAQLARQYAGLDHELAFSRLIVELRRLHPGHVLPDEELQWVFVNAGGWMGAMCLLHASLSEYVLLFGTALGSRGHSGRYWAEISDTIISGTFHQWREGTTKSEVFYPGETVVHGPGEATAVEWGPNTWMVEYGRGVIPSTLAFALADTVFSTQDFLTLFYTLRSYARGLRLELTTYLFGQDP

One assay addresses Sigma intracellular receptor 2 (Homo sapiens, UniProt Q5BJF2). The assay can be described thus: Binding affinity to sigma 2 receptor (unknown origin).
Compound `N#Cc1ccc(CCNC2CCc3nn4c(c3C2)C(=O)NCCC4)cc1` (stereo not given) gave a Ki below 1000 nM.
Still for that read-out and setting: for `CN1CCn2nc3c(c2C1=O)CC(NCc1ccc(F)cc1)CC3` (stereo not given) the value was 1000 nM.
`O=C(c1nn(-c2ccccc2)c2c1CC(NCCc1ncc[nH]1)CC2)N1CCCCC1` (stereo not given) showed a Ki below 1000 nM.
Same read-out and setting: next, `CCCn1nc(C(=O)Nc2cccc(OC)c2)c2c1CCC(NCCc1ccncc1)C2` (stereo not given): below 1000 nM; `N#Cc1ccc(CCNC2CCc3c(c(C(=O)N4CCCCC4)nn3-c3ccccc3)C2)cc1` (stereo not given): below 1000 nM; `O=C(c1nn(-c2ccccc2)c2c1CC(N1CCc3ccccc3C1)CC2)N1CCCCC1` (stereo not given): 1000 nM.
For `CCCn1nc(C(=O)N2CCCCC2)c2c1CCN(CCc1cccc(C(F)(F)F)c1)C2`, the Ki is below 1000 nM.
The same measure, in the same setting: for `O=C(c1nn(-c2ccccc2)c2c1CC(NCC1CCOCC1)CC2)N1CCCCC1` (stereo not given) the value was below 1000 nM.
Same read-out and setting: for `CCCn1nc(C(=O)N2CCCCC2)c2c1CCN(CCc1ccc(F)cc1)C2` the value was 1000 nM; for `O=C1NCCn2nc3c(c21)CC(NCCc1ccc2c(c1)OCO2)CC3` (stereo not given), 1000 nM.

The next assay has as its target Sigma non-opioid intracellular receptor 1 (Homo sapiens, UniProt Q99720). In words: Binding affinity to sigma 1 receptor (unknown origin).
`N#Cc1ccc(CCNC2CCc3nn4c(c3C2)C(=O)NCCC4)cc1` (stereo not given) displayed a Ki of 1000 nM. This lies in the single-digit micromolar range.
Same read-out and setting: for `CN1CCn2nc3c(c2C1=O)CC(NCc1ccc(F)cc1)CC3` (stereo not given) the value was 1000 nM.
On the same count and under the same terms, next, `O=C(c1nn(-c2ccccc2)c2c1CC(NCCc1ncc[nH]1)CC2)N1CCCCC1` (stereo not given): 1000 nM.
Turning to `CCCn1nc(C(=O)Nc2cccc(OC)c2)c2c1CCC(NCCc1ccncc1)C2` (stereo not given), the Ki was 1000 nM.
Same read-out and setting: next, `N#Cc1ccc(CCNC2CCc3c(c(C(=O)N4CCCCC4)nn3-c3ccccc3)C2)cc1` (stereo not given): below 1000 nM.
The same measure, in the same setting: for `O=C(c1nn(-c2ccccc2)c2c1CC(N1CCc3ccccc3C1)CC2)N1CCCCC1` (stereo not given) the value was 1000 nM; for `CCCn1nc(C(=O)N2CCCCC2)c2c1CCN(CCc1cccc(C(F)(F)F)c1)C2`, 1000 nM.
Still for that read-out and setting: for `O=C(c1nn(-c2ccccc2)c2c1CC(NCC1CCOCC1)CC2)N1CCCCC1` (stereo not given) the value was below 1000 nM.
`CCCn1nc(C(=O)N2CCCCC2)c2c1CCN(CCc1ccc(F)cc1)C2` yielded a Ki below 1000 nM.
On the same count and under the same terms, next, `O=C1NCCn2nc3c(c21)CC(NCCc1ccc2c(c1)OCO2)CC3` (stereo not given): 1000 nM.

Source of the values: ChEMBL document CHEMBL4673399, “Sigma-1 and Sigma-2 Receptor Modulators as Potential Therapeutics for Alzheimer's Disease” (ACS Med Chem Lett, 2021).
